Measurements taken from US20130101628A1 (NORTHWESTERN UNIVERSITY, priority 2011, published 2013).

Columns and labels:
[1] = target: T1, VEGF receptor 1 (VEGFR1 or Flt-1) (Homo sapiens, UniProt P17948); experiment: Sandwich ELISA of phosphorylated VEGFR1 in lysates of stimulated HUVEC; assay type: cell-based; conditions: HUVEC, native VEGF 100 ng/ml positive control, 2 minutes exposure
T1 construct: host or cells: HUVEC
Experimental: (§1) Human umbilical vein endothelial cells (HUVECs) and complete endothelial cell growth media (EGM) were purchased (Genlantis, San Diego, Calif.), passaged two times following receipt, and cryo-preserved in media with 5% DMSO. Cells were thawed as needed and grown to confluence in a […] flasks (VWR Falcon) prior to plating for experiments.
(§2) Phosphorylation of both VEGFRI and VEGFR2 was assayed using commercially available assay kit (R&D Systems, Minneapolis, Minn.) following the recommended protocol. First, confluent HUVECs plated in 24 well plates were starved for 5 hours in serum-free defined media (SFDM, Genlantis) specifically designed to maintain cells in a growth factor-free setting for growth factor signaling and metabolic assays. Following starvation, the various treatments were dissolved in SFDM to a concentration of 1 μM. […] Cells were exposed to treatment for 2 minutes. To evaluate the time-course of phosphorylation the same protocol was followed and cells were exposed to VEGF-PA for 0, 1, 3, 5, 10, 15, 20, 25, 30, 40, 50, and 60 minutes.

[2] = target: T2, VEGF receptor 2 (VEGFR2 or KDR) (Homo sapiens, UniProt P35968); experiment: Sandwich ELISA of phosphorylated VEGFR2 in lysates of stimulated HUVEC; assay type: cell-based
T2 construct: host or cells: HUVEC
Experimental: as §1, §2

T1 sequence (P17948 27-1338): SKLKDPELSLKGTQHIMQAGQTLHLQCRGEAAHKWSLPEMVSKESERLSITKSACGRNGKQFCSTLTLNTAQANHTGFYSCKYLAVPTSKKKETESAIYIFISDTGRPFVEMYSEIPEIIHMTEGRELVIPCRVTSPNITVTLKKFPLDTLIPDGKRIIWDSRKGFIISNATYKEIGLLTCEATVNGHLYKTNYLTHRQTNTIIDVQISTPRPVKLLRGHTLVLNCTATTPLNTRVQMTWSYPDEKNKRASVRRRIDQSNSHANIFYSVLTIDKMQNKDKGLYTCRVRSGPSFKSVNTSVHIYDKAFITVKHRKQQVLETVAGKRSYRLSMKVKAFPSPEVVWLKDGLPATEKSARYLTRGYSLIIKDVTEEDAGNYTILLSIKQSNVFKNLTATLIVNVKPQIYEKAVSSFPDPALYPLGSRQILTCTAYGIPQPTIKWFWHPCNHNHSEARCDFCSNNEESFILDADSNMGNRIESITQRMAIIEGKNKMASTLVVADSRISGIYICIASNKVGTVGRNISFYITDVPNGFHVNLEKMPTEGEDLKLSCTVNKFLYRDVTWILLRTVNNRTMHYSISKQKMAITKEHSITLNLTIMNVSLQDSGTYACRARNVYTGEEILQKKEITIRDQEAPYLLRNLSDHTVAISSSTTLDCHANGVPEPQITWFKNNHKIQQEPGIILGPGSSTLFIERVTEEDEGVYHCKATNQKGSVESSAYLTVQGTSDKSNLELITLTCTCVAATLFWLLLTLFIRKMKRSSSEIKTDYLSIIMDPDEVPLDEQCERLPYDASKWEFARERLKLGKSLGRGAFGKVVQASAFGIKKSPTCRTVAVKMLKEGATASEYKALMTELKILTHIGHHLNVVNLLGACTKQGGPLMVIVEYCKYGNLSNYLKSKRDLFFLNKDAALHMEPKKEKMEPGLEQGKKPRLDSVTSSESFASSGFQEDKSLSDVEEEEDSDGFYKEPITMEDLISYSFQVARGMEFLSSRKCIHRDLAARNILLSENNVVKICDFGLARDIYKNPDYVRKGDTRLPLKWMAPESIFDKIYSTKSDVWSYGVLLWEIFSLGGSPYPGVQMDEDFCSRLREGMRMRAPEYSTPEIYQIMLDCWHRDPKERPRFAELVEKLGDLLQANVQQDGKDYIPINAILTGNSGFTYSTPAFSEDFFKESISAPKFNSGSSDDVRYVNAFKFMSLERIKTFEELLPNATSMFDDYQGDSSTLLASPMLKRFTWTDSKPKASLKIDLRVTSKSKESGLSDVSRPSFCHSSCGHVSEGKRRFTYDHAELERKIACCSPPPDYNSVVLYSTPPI
T2 sequence (P35968 20-1356): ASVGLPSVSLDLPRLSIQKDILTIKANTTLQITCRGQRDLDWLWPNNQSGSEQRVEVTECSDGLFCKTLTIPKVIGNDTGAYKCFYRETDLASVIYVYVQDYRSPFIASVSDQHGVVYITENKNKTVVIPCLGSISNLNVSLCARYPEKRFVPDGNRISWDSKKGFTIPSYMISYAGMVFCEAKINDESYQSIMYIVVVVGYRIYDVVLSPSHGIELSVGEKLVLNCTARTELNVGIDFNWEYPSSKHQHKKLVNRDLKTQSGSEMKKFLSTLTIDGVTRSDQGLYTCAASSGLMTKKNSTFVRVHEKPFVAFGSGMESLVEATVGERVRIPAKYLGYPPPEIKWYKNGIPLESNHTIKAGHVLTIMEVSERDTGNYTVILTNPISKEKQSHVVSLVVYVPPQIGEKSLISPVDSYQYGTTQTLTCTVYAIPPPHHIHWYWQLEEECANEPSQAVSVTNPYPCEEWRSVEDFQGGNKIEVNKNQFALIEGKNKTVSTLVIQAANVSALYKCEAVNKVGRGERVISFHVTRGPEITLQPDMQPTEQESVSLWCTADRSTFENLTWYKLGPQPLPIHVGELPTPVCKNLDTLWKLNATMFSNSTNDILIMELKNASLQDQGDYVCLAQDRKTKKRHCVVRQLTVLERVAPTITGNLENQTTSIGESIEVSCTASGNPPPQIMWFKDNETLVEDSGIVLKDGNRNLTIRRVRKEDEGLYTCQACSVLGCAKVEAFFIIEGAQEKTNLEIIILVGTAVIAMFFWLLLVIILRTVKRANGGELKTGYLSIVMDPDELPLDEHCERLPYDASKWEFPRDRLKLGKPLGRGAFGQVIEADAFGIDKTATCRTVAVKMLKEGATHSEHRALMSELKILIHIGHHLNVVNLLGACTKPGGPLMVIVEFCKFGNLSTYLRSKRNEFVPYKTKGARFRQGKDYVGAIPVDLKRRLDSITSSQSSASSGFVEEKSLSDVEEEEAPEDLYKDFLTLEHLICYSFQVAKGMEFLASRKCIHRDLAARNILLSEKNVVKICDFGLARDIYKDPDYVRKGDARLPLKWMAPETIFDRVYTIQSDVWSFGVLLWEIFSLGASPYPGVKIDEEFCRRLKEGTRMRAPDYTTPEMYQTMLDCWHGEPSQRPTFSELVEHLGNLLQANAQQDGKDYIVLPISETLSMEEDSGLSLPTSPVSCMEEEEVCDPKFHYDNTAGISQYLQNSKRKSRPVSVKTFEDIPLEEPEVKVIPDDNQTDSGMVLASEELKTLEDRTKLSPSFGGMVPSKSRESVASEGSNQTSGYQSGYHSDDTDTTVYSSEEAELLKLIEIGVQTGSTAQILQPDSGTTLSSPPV

Substance: VEGF
- amount of phosphorylated VEGFR1, times untreated control [1]: 1.306±0.044
- VEGFR2 phosphorylation level relative to untreated control [2]: 1.311±0.106
